{
  "source": "patent US20090226427A1",
  "about": "“NOVEL PHARMACEUTICAL COMPOSITIONS FOR MODULATING ANGIOGENESIS” (priority 1999, published 2009)",
  "key": {"endothelial cells": {"test_system": "endothelial cells", "assay": "sandwich Matrigel model of endothelial tube formation", "assay_type": "cell-based", "settings": "non-transfected cells", "experimental": "Indeed, while endothelial cells culture leads to pavimentous organization when plated on dishes (FIG. 1A), endothelial cells progressively form tubes when cultured within gels of collagen, fibrin or Matrigel®. Accordingly, in the “3-D model”, endothelial cells are mixed to the matrix before gelification and tube-like structures are obtained after 48-72 hours (FIG. 1B); this model, however, reduces the efficiency of transfection. In the “sandwich model”, cells are first cultured to confluence on a first layer of matrix, and are then covered by a second matrix layer; cells are easily transfected in the interval preceding the addition of the upper layer. The latter technique allows the formation of endothelial tubes in 3-6 hours; the tube structures are mature 12 hours after induction (FIG. 1C) and then start to regress.\nOf note, when endothelial cells were transfected with an irrelevant construct (β-galactosidase-encoding), no change in the rate and extent of tube formation was observed."}, "AoECs": {"test_system": "AoECs", "assay": "aortic ring culture in Matrigel, AoEC network organization", "assay_type": "cell-based, rat", "experimental": "Cultures of AoECs and CoMECs organized in a network were then challenged at day 5 by incubation under serum-free conditions for 24 to 48 hours with or without some of the drugs mentioned above. […] Tube formation was observed using an inverted phase-contrast microscope (Zeiss Axiovert 25), and images were captured with a videographic system (Pixera Pro). The tube formation index was determined by measuring the length of tubes in random fields from each well using the Image J program. Statistical analyses were made using the Student t test or one-way ANOVA where appropriate."}, "eNOS/hsp90 interaction": {"test_system": "eNOS/hsp90 interaction", "assay": "eNOS/hsp90 co-immunoprecipitation, statin-exposed HUVECs", "settings": "5-minute exposure"}, "phospho-eNOS": {"test_system": "phospho-eNOS", "assay": "phospho-eNOS immunoblot and hsp90/eNOS interaction, AoECs", "assay_type": "cell-based, rat"}, "hsp90": {"test_system": "hsp90", "assay": "hsp90 tyrosine phosphorylation, HUVECs", "assay_type": "cell-based, human"}, "phospho-Ser473-Akt": {"test_system": "phospho-Ser473-Akt", "assay": "phospho-Ser473-Akt immunoblot, statin-exposed HUVECs", "settings": "5-minute incubation"}, "caveolin [1]": {"test_system": "caveolin", "assay": "caveolin immunoblot, AECs", "assay_type": "cell-based, Bovine", "settings": "isolated aortic ECs after statin treatment", "source_text": "(§1) Therefore, the effects of statin exposure on the absolute amounts of caveolin in AoECs and CMECs was examined."}, "CMECs": {"test_system": "CMECs", "assay": "angiogenesis assay on Matrigel, CMECs", "assay_type": "cell-based, Mouse", "experimental": "(§2) Tube formation was observed using an inverted phase-contrast microscope (Zeiss Axiovert 25), and images were captured with a videographic system (Pixera Pro). The tube formation index was determined by measuring the length of tubes in random fields from each well using the Image J program. Statistical analyses were made using the Student t test or one-way ANOVA where appropriate."}, "[2]": {"test_system": "caveolin/eNOS interaction", "settings": "CMECs; P>0.1, n=3"}, "[3]": {"test_system": "phospho-Akt/eNOS interaction", "assay": "eNOS/phospho-Akt co-immunoprecipitation, statin-exposed HUVECs"}, "caveolin [4]": {"test_system": "caveolin", "assay": "caveolin immunoblot, AoECs", "assay_type": "cell-based, rat", "settings": "n=3, P<0.01", "source_text": "as §1"}, "phospho-Ser1177-eNOS [5]": {"test_system": "phospho-Ser1177-eNOS", "assay": "phospho-Ser1177-eNOS immunoblot, statin-exposed HUVECs"}, "caveolin [6]": {"test_system": "caveolin", "assay": "caveolin immunoblot, CMECs", "assay_type": "cell-based, Mouse", "settings": "3-hour exposure of CMECs", "source_text": "as §1"}, "caveolin [7]": {"test_system": "caveolin", "assay": "caveolin immunoblot, CoMECs", "assay_type": "cell-based, human", "settings": "microvascular outgrowing CoMECs", "source_text": "as §1"}, "phospho-Ser1177-eNOS [8]": {"test_system": "phospho-Ser1177-eNOS", "assay": "phospho-Ser1177 eNOS immunoblot, CMECs", "assay_type": "cell-based, Mouse"}, "[9]": {"test_system": "caveolin/eNOS interaction", "assay": "caveolin/eNOS co-immunoprecipitation, AoECs", "assay_type": "cell-based, rat"}, "Akt/hsp90 interaction": {"test_system": "Akt/hsp90 interaction", "assay": "Akt/hsp90 co-immunoprecipitation, statin-exposed HUVECs", "assay_type": "cell-based, human", "settings": "5-minute exposure"}, "HUVECs": {"test_system": "HUVECs", "assay": "angiogenesis assay on Matrigel, HUVECs", "assay_type": "cell-based, human", "settings": "HUVECs; 0.1 μmol/L", "experimental": "as §2\nTransfection and peptide loading was performed by reversible permeabilization: HUVECs were transfected with the hsp90 cDNA (a gift from Dr W. C. Sessa, Yale University, New Haven, Conn.) using Lipofectamine (Invitrogen) according to the manufacturer's protocol; an irrelevant plasmid encoding β-galactosidase was used as a control to obtain identical amounts of transfected DNA in each condition. HUVECs were also reversibly permeabilized, as previously reported (Feron et al. J Biol. Chem. 1998; 273:30249-30254), to introduce synthetic peptides derived from the caveolin scaffolding domain (CSD)."}, "[10]": {"test_system": "TLT cells (hepatocarcioma)", "assay": "TLT tumor mouse model, tumor volume", "assay_type": "in vivo, mice", "settings": "immunological detection of HA tag in tumor endothelial cells", "source_text": "Hepatocarcinoma cells are able to grow as a tumor after injection in the leg of mice is dependent on the ability of endothelial cells to develop new vessels to “feed” the tumor. This vessel development depends on the capacity of endothelial cells to produce NO through eNOS activation in these cells, itself regulated by the post-translational modulators it was previously identified in the in vitro experiments, e.g. caveolin-1.\nTumor mouse model: 30-40 g male NMRI mice received an IP injection of TLT cells (hepatocarcioma). Ascite cells were recovered in physiological serum and IM-injected in the posterior left leg of ketamine/xylazin anesthetized mice. Tumors grew for 9-12 days to reach 8±1 mm of diameter, the original diameter for treatment (caveolin plasmid injection) at day 0.\nThe effect of injection of plasmids encoding caveolin-1 has been evaluated on the volume of the growing tumor after tumor implantation in the leg (FIG. 2). Caveolin-encoding plasmids were injected either intravenously or directly in the tumor. The working hypothesis was that heterologous over-expression of caveolin-1 in endothelial cells will inhibit eNOS activation in endothelial cells, with a subsequent inhibition of angiogenesis that will result in a decrease in tumor growth."}},
  "data": [
    {"molecule": "CC(C)c1c(C(=O)Nc2ccccc2)c(-c2ccccc2)c(-c2ccc(F)cc2)n1CC[C@@H](O)C[C@@H](O)CC(=O)O", "note": "[atorvastatin]", "values": [
      {"measurement": "endothelial tube formation", "setting": "endothelial cells", "result": "accelerated the endothelial tube formation"},
      {"measurement": "serum-driven formation of the AoEC network", "setting": "AoECs; atorvastatin present during 5 to 7 days of cell growth", "result": "did not significantly influence"},
      {"measurement": "network organization after serum deprivation", "setting": "AoECs; statin pretreatment, then deprived of serum for 48 hours", "result": "dramatically stabilized the network organization"},
      {"measurement": "interaction of hsp90 with eNOS", "setting": "eNOS/hsp90 interaction", "result": "sufficient to promote the interaction of hsp90 with both Akt and eNOS"},
      {"measurement": "phosphorylation of eNOS", "setting": "phospho-eNOS; AoECs, 5-day treatment then 48-hour period in the absence of atorvastatin", "result": "no effect"},
      {"measurement": "amounts of phospho-eNOS and hsp90/eNOS interaction", "setting": "phospho-eNOS; uninterrupted exposure of outgrowing AoECs (or isolated AECs)", "result": "significant increase"},
      {"measurement": "tyrosine phosphorylation of hsp90", "setting": "hsp90", "result": "rapidly and dose-dependently induced"},
      {"measurement": "Akt phosphorylation", "setting": "phospho-Ser473-Akt", "result": "sufficient to induce Akt phosphorylation"},
      {"measurement": "caveolin abundance", "setting": "caveolin [1]", "result": "significant decrease in caveolin abundance"},
      {"measurement": "time of maximal proangiogenic effect", "setting": "CMECs; CMECs on Matrigel", "result": 3, "unit": "h"},
      {"measurement": "formation of capillary-like structures on Matrigel", "setting": "CMECs; freshly isolated CMECs, atorvastatin 1 _mol/L", "result": "rapidly led to the formation of capillary-like structures"},
      {"measurement": "amount of caveolin immunoprecipitated by eNOS antibodies", "setting": "[2]", "result": "not significantly altered"},
      {"measurement": "time to maximum of the Akt-hsp90-eNOS mutual interaction", "setting": "[3]", "result": "1 to 2", "unit": "h"},
      {"measurement": "association of Akt with eNOS", "setting": "[3]; 5-minute exposure", "result": "insufficient to promote the association of Akt with eNOS"},
      {"measurement": "reduction of the AoEC pool of caveolin", "setting": "caveolin [4]", "result": "26+/−5%"},
      {"measurement": "eNOS phosphorylation", "setting": "phospho-Ser1177-eNOS [5]; 5-minute incubation", "result": "did not promote eNOS phosphorylation"},
      {"measurement": "eNOS phosphorylation", "setting": "phospho-Ser1177-eNOS [5]; 30 minutes exposure", "result": "produced eNOS phosphorylation"},
      {"measurement": "abundance of caveolin", "setting": "caveolin [6]", "result": "did not alter"},
      {"measurement": "caveolin expression", "setting": "caveolin [7]", "result": "did not any alteration in caveolin expression"},
      {"measurement": "eNOS phosphorylation (Ser1177)", "setting": "phospho-Ser1177-eNOS [8]", "result": "did produce eNOS phosphorylation"},
      {"measurement": "eNOS found in the caveolin immunoprecipitate", "setting": "[9]; AoECs exposed to atorvastatin for 5 days, n=6, 44+/−8% without statin", "result": "8+/−5%"},
      {"measurement": "change in amount of caveolin immunoprecipitated by eNOS antibodies", "setting": "[9]; atorvastatin-treated AoECs, P<0.01, n=3", "result": "−73+/−7%"},
      {"measurement": "interaction of hsp90 with Akt", "setting": "Akt/hsp90 interaction", "result": "sufficient to promote the interaction of hsp90 with both Akt and eNOS"},
      {"measurement": "tube formation", "setting": "HUVECs", "result": "stimulated tube formation"}
    ]},
    {"molecule": "recombinant (HA-tagged-) caveolin: recombinant caveolin-1 tagged with hemagglutinin antigen, expressed from the injected plasmid (protein, UniProt Q03135 2-178, looked up, HA tag, recombinant caveolin-1 tagged with hemagglutinin antigen, expressed from the injected plasmid) Caveolin-1: SGGKYVDSEGHLYTVPIREQGNIYKPNNKAMADELSEKQVYDAHTKEIDLVNRDPKHLNDDVVKIDFEDVIAEPEGTHSFDGIWKASFTTFTVTKYWFYRLLSALFGIPMALIWGIYFAILSFLHIWAVVPCIKSFLIEIQCISRVYSIYVHTVCDPLFEAVGKIFSNVRINLQKEI", "values": [
      {"measurement": "extent of recombinant caveolin expression in relation to tumor volume", "setting": "[10]", "result": "inversely correlated to the tumor volume"}
    ]}
  ]
}
